Reference: PubChem BioAssay (NCI)
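In this assay, cells in 96-well plates receive the compound at five concentrations for 48 hours. Endpoints are linearly interpolated between the surrounding concentrations. TGI denotes the concentration required for complete inhibition of growth.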

Key:
Assay in all cases: NCI tumour cell line growth inhibition, 48 h
OVCAR-3 ovarian = test system: OVCAR-3 ovarian
PC-3 prostate = test system: PC-3 prostate
ACHN renal = test system: ACHN renal
SNB-75 CNS = test system: SNB-75 CNS
EKVX NSCLC = test system: EKVX NSCLC
KM12 colon = test system: KM12 colon
K-562 leukemia = test system: K-562 leukemia
SK-MEL-2 melanoma = test system: SK-MEL-2 melanoma
LOX IMVI melanoma = test system: LOX IMVI melanoma
UACC-257 melanoma = test system: UACC-257 melanoma
HCT-116 colon = test system: HCT-116 colon
NCI-H23 lung = test system: NCI-H23 lung
TK-10 renal = test system: TK-10 renal
SR leukemia = test system: SR leukemia

O=C1NC(=O)C2(CCCCCC2)N1
TGI (OVCAR-3 ovarian): > 100 µM | TGI (PC-3 prostate): > 100 µM | TGI (ACHN renal): > 100 µM | TGI (SNB-75 CNS): > 100 µM | TGI (EKVX NSCLC): > 100 µM | TGI (KM12 colon): > 100 µM | TGI (K-562 leukemia): > 100 µM | TGI (SK-MEL-2 melanoma): > 100 µM | TGI (LOX IMVI melanoma): > 100 µM | TGI (UACC-257 melanoma): > 100 µM | TGI (HCT-116 colon): > 100 µM | TGI (NCI-H23 lung): > 100 µM | TGI (TK-10 renal): > 100 µM

CCCCCCCCCCCCCCCCOCC(Cl)COP(=O)(O)OP(=O)(O)OCC1OC(n2cc(C)c(=O)[nH]c2=O)CC1O (stereo unspecified)
TGI (OVCAR-3 ovarian): > 100 µM | TGI (PC-3 prostate): 62.9 µM | TGI (ACHN renal): > 100 µM | TGI (SNB-75 CNS): 71.8 µM | TGI (EKVX NSCLC): > 100 µM | TGI (KM12 colon): > 100 µM | TGI (K-562 leukemia): > 100 µM | TGI (SK-MEL-2 melanoma): > 100 µM | TGI (LOX IMVI melanoma): > 100 µM | TGI (UACC-257 melanoma): > 100 µM | TGI (HCT-116 colon): > 100 µM | TGI (NCI-H23 lung): > 100 µM | TGI (TK-10 renal): > 100 µM

CN(C)S(=O)(=O)/N=C/c1cccc(/C=N/S(=O)(=O)N(C)C)c1
TGI (OVCAR-3 ovarian): > 100 µM | TGI (PC-3 prostate): > 100 µM | TGI (ACHN renal): > 100 µM | TGI (SNB-75 CNS): 92.8 µM | TGI (EKVX NSCLC): > 100 µM | TGI (KM12 colon): > 100 µM | TGI (K-562 leukemia): > 100 µM | TGI (LOX IMVI melanoma): > 100 µM | TGI (UACC-257 melanoma): > 100 µM | TGI (HCT-116 colon): > 100 µM | TGI (NCI-H23 lung): > 100 µM | TGI (TK-10 renal): > 100 µM

CCOC(=O)[C@@]12C3C=CC(CC3)[C@]1(C(=O)c1ccccc1)C(=O)C(=O)N2c1ccccc1 (stereo partly specified)
TGI (OVCAR-3 ovarian): > 100 µM | TGI (PC-3 prostate): > 100 µM | TGI (ACHN renal): > 100 µM | TGI (KM12 colon): > 100 µM | TGI (K-562 leukemia): > 100 µM | TGI (SK-MEL-2 melanoma): > 100 µM | TGI (SR leukemia): > 100 µM | TGI (HCT-116 colon): > 100 µM | TGI (NCI-H23 lung): > 100 µM | TGI (TK-10 renal): > 100 µM

COC(=O)/C=C1/CCC(C)(C(=O)NS(=O)(=O)c2ccc(C)cc2)C1(C)C (stereo unspecified)
TGI (OVCAR-3 ovarian): > 100 µM | TGI (PC-3 prostate): > 100 µM | TGI (ACHN renal): > 100 µM | TGI (EKVX NSCLC): > 100 µM | TGI (KM12 colon): > 100 µM | TGI (K-562 leukemia): > 100 µM | TGI (SK-MEL-2 melanoma): > 100 µM | TGI (LOX IMVI melanoma): > 100 µM | TGI (UACC-257 melanoma): > 100 µM | TGI (HCT-116 colon): > 100 µM | TGI (NCI-H23 lung): > 100 µM | TGI (TK-10 renal): > 100 µM

COc1cc(C2C(C#N)=C(N)OC3=C2CCS(=O)(=O)c2ccc(C)cc23)cc(OC)c1OC (stereo unspecified)
TGI (OVCAR-3 ovarian): > 100 µM | TGI (PC-3 prostate): > 100 µM | TGI (ACHN renal): > 100 µM | TGI (SNB-75 CNS): > 100 µM | TGI (KM12 colon): > 100 µM | TGI (K-562 leukemia): > 100 µM | TGI (SK-MEL-2 melanoma): > 100 µM | TGI (SR leukemia): > 100 µM | TGI (LOX IMVI melanoma): > 100 µM | TGI (UACC-257 melanoma): > 100 µM | TGI (HCT-116 colon): > 100 µM | TGI (NCI-H23 lung): > 100 µM | TGI (TK-10 renal): > 100 µM

CCC[C@H](NS(=O)c1ccc(C)cc1)C(C(=O)OCC)=C(c1ccccc1)c1ccccc1 (stereo partly specified)
TGI (PC-3 prostate): 50.7 µM | TGI (ACHN renal): 60.8 µM | TGI (SNB-75 CNS): 54.2 µM | TGI (EKVX NSCLC): 38.6 µM | TGI (KM12 colon): 37.8 µM | TGI (K-562 leukemia): > 100 µM | TGI (SK-MEL-2 melanoma): 31.7 µM | TGI (LOX IMVI melanoma): 33.6 µM | TGI (UACC-257 melanoma): 33.5 µM | TGI (HCT-116 colon): 27.4 µM | TGI (NCI-H23 lung): 96 µM | TGI (TK-10 renal): 97 µM

CC(=O)OC1CCCn2c1nc1c2C(=O)C(C)=C(N2CC2)C1=O (stereo unspecified)
TGI (OVCAR-3 ovarian): 1.39 µM | TGI (ACHN renal): 1.25 µM | TGI (SNB-75 CNS): 0.808 µM | TGI (EKVX NSCLC): 1.9 µM | TGI (KM12 colon): 1.24 µM | TGI (K-562 leukemia): > 35.2 µM | TGI (SK-MEL-2 melanoma): 0.693 µM | TGI (SR leukemia): > 100 µM | TGI (LOX IMVI melanoma): 1.01 µM | TGI (UACC-257 melanoma): 0.587 µM | TGI (HCT-116 colon): 1.96 µM | TGI (NCI-H23 lung): 0.373 µM | TGI (TK-10 renal): 7.28 µM

NC(=S)N/N=C1\NC(=O)/C(=C/c2ccc3c(c2)OCO3)S1
TGI (OVCAR-3 ovarian): 45.7 µM | TGI (ACHN renal): > 100 µM | TGI (SNB-75 CNS): 52.6 µM | TGI (EKVX NSCLC): 56 µM | TGI (KM12 colon): 55.3 µM | TGI (SK-MEL-2 melanoma): 90.1 µM | TGI (LOX IMVI melanoma): 85.2 µM | TGI (UACC-257 melanoma): 76.1 µM | TGI (HCT-116 colon): 85 µM | TGI (NCI-H23 lung): 54.4 µM | TGI (TK-10 renal): > 100 µM

CC(C)(C)OC(=O)NCCc1cccc2c1oc1c(CCC(=O)O)cccc12
TGI (OVCAR-3 ovarian): > 100 µM | TGI (ACHN renal): > 100 µM | TGI (SNB-75 CNS): > 100 µM | TGI (KM12 colon): > 100 µM | TGI (K-562 leukemia): > 100 µM | TGI (SK-MEL-2 melanoma): > 100 µM | TGI (SR leukemia): > 100 µM | TGI (LOX IMVI melanoma): > 100 µM | TGI (UACC-257 melanoma): > 100 µM | TGI (HCT-116 colon): > 100 µM | TGI (NCI-H23 lung): > 100 µM | TGI (TK-10 renal): > 100 µM

O=C(O)CCc1ccc2c(c1)C(=O)CC2
TGI (OVCAR-3 ovarian): > 100 µM | TGI (ACHN renal): > 100 µM | TGI (EKVX NSCLC): > 100 µM | TGI (KM12 colon): > 100 µM | TGI (K-562 leukemia): > 100 µM | TGI (SK-MEL-2 melanoma): > 100 µM | TGI (SR leukemia): > 100 µM | TGI (LOX IMVI melanoma): > 100 µM | TGI (UACC-257 melanoma): > 100 µM | TGI (HCT-116 colon): > 100 µM | TGI (NCI-H23 lung): > 100 µM | TGI (TK-10 renal): > 100 µM

COc1ccc2cc(C(=O)O)ccc2c1OC
TGI (OVCAR-3 ovarian): > 100 µM | TGI (PC-3 prostate): > 100 µM | TGI (ACHN renal): > 100 µM | TGI (SNB-75 CNS): > 100 µM | TGI (KM12 colon): > 100 µM | TGI (K-562 leukemia): > 100 µM | TGI (SK-MEL-2 melanoma): > 100 µM | TGI (SR leukemia): > 100 µM | TGI (UACC-257 melanoma): > 100 µM | TGI (HCT-116 colon): > 100 µM | TGI (NCI-H23 lung): > 100 µM

O=C(N=Nc1cccc(Cl)c1)NNc1cccc(Cl)c1
TGI (OVCAR-3 ovarian): 29.9 µM | TGI (PC-3 prostate): 36 µM | TGI (ACHN renal): 50.8 µM | TGI (SNB-75 CNS): > 100 µM | TGI (K-562 leukemia): 39.6 µM | TGI (SK-MEL-2 melanoma): 24.6 µM | TGI (SR leukemia): 90.7 µM | TGI (LOX IMVI melanoma): 26.8 µM | TGI (UACC-257 melanoma): 54.3 µM | TGI (HCT-116 colon): 21.2 µM | TGI (NCI-H23 lung): > 100 µM | TGI (TK-10 renal): 66.6 µM

CCc1n[nH]c(=O)n1/N=C/c1ccc(C)cc1
TGI (OVCAR-3 ovarian): > 100 µM | TGI (ACHN renal): > 100 µM | TGI (EKVX NSCLC): > 100 µM | TGI (KM12 colon): > 100 µM | TGI (K-562 leukemia): > 100 µM | TGI (SK-MEL-2 melanoma): > 100 µM | TGI (LOX IMVI melanoma): > 100 µM | TGI (UACC-257 melanoma): > 100 µM | TGI (HCT-116 colon): > 100 µM | TGI (NCI-H23 lung): > 100 µM | TGI (TK-10 renal): > 100 µM

CC(=O)Oc1ccccc1/C=C/C(=O)/C=C/c1ccccc1OC(C)=O
TGI (OVCAR-3 ovarian): 4.23 µM | TGI (PC-3 prostate): 5.04 µM | TGI (ACHN renal): 3.62 µM | TGI (SNB-75 CNS): 5.95 µM | TGI (EKVX NSCLC): 9.9 µM | TGI (KM12 colon): 3.06 µM | TGI (K-562 leukemia): 4.53 µM | TGI (SK-MEL-2 melanoma): 21.1 µM | TGI (LOX IMVI melanoma): 2.01 µM | TGI (UACC-257 melanoma): 2.96 µM | TGI (HCT-116 colon): 0.973 µM | TGI (NCI-H23 lung): 4.61 µM | TGI (TK-10 renal): 10.6 µM

CC(=O)NC1=C(NCCN(C)C)C(=O)c2ccccc2C1=O
TGI (OVCAR-3 ovarian): > 50 µM | TGI (ACHN renal): > 50 µM | TGI (SNB-75 CNS): > 50 µM | TGI (EKVX NSCLC): > 50 µM | TGI (KM12 colon): > 50 µM | TGI (K-562 leukemia): > 50 µM | TGI (SK-MEL-2 melanoma): > 50 µM | TGI (SR leukemia): > 50 µM | TGI (LOX IMVI melanoma): > 50 µM | TGI (UACC-257 melanoma): 16.8 µM | TGI (HCT-116 colon): 18.6 µM | TGI (NCI-H23 lung): 27.8 µM | TGI (TK-10 renal): > 50 µM

C=CCSC1=N/C(=C\c2cccs2)C(=O)N1CC=C
TGI (OVCAR-3 ovarian): > 100 µM | TGI (PC-3 prostate): > 100 µM | TGI (ACHN renal): > 100 µM | TGI (EKVX NSCLC): 71.4 µM | TGI (KM12 colon): > 100 µM | TGI (K-562 leukemia): > 100 µM | TGI (SK-MEL-2 melanoma): > 100 µM | TGI (SR leukemia): > 100 µM | TGI (LOX IMVI melanoma): > 100 µM | TGI (UACC-257 melanoma): > 100 µM | TGI (HCT-116 colon): > 100 µM | TGI (NCI-H23 lung): > 100 µM | TGI (TK-10 renal): > 100 µM
